Assay results as given in PMC11620503 (Antimicrobial Agents and Chemotherapy, 2024).
Converted amounts (≈) assume the structure as drawn. Read-outs that look alike come from different tables or passages of the source. Marks after values point to notes of the source that are not given here.

Tests used:
Assay in all cases: MIC, broth microdilution
[1] = test system: 207 Enterobacterales including carbapenem-resistant isolates; format: cell-based; conditions: for CLSI MIC interpretation I (intermediate) / CLSI MIC interpretation R (resistant) / CLSI MIC interpretation S (susceptible): CLSI breakpoints, marked c: breakpoints for β-lactam alone, tigecycline: FDA breakpoints; for MIC50: read-out: MIC50; for MIC90: read-out: MIC90
[2] = test system: MEM-nonsusceptible Enterobacterales; format: cell-based; conditions: MEM-nonsusceptible Enterobacterales (127), cefiderocol 126 isolates; for CLSI MIC interpretation I (intermediate) / CLSI MIC interpretation R (resistant) / CLSI MIC interpretation S (susceptible): CLSI breakpoints, marked c: breakpoints for β-lactam alone, tigecycline: FDA breakpoints; for MIC50: read-out: MIC50; for MIC90: read-out: MIC90
[3] = test system: serine-carbapenemase-producing isolates (Enterobacterales); format: cell-based; conditions: Enterobacterales with serine-carbapenemases (80); for CLSI MIC interpretation I (intermediate) / CLSI MIC interpretation R (resistant) / CLSI MIC interpretation S (susceptible): CLSI breakpoints, marked c: breakpoints for β-lactam alone, tigecycline: FDA breakpoints; for MIC50: read-out: MIC50; for MIC90: read-out: MIC90
[4] = test system: MBL-producing isolates (Enterobacterales); format: cell-based; conditions: for CLSI MIC interpretation I (intermediate) / CLSI MIC interpretation R (resistant) / CLSI MIC interpretation S (susceptible): CLSI breakpoints, marked c: breakpoints for β-lactam alone, tigecycline: FDA breakpoints; for MIC50: read-out: MIC50; for MIC90: read-out: MIC90
[5] = test system: 55 isolates of A. baumannii; format: cell-based, Acinetobacter baumannii; conditions: Acinetobacter baumannii (55); for MIC50: read-out: MIC50; for MIC90: read-out: MIC90
96 P. aeruginosa = format: cell-based, Pseudomonas aeruginosa; conditions: Pseudomonas aeruginosa (96); for MIC50: read-out: MIC50; for MIC90: read-out: MIC90
[6] = test system: MEM-, imipenem/relebactam-, and ceftolozane/tazobactam-nonsusceptible P. aeruginosa; format: cell-based, Pseudomonas aeruginosa; conditions: for CLSI MIC interpretation I (intermediate) / CLSI MIC interpretation R (resistant) / CLSI MIC interpretation S (susceptible): marked c: breakpoints for β-lactam alone; for MIC50 / MIC90: Pseudomonas aeruginosa; for MIC50: read-out: MIC50; for MIC90: read-out: MIC90
[7] = test system: MEM-nonsusceptible Enterobacterales with serine-carbapenemases; format: cell-based; conditions: MEM-nonsusceptible Enterobacterales with serine-carbapenemases (58); for CLSI MIC interpretation I (intermediate) / CLSI MIC interpretation R (resistant) / CLSI MIC interpretation S (susceptible): CLSI breakpoints, marked c: breakpoints for β-lactam alone, tigecycline: FDA breakpoints; for MIC50: read-out: MIC50; for MIC90: read-out: MIC90
[8] = test system: MEM-nonsusceptible Enterobacterales with metallo-carbapenemases; format: cell-based; conditions: MEM-nonsusceptible Enterobacterales with metallo-carbapenemases (55), cefiderocol 54 isolates; for MIC50: read-out: MIC50; for MIC90: read-out: MIC90
[9] = All Enterobacterales (207), cefiderocol 205 isolates
[10] = fixed concentration (μg/mL) in label
[11] = Enterobacterales with metallo-carbapenemases (74), cefiderocol 73 isolates
[12] = Enterobacterales with metallo-carbapenemases (74), cefiderocol 73 isolates, fixed concentration (μg/mL) in label
[13] = CLSI breakpoints, marked c: breakpoints for β-lactam alone
[14] = Imipenem/relebactam-nonsusceptible Pseudomonas aeruginosa (43), CLSI breakpoints
[15] = MEM-nonsusceptible Pseudomonas aeruginosa (76), CLSI breakpoints
[16] = Imipenem/relebactam-nonsusceptible Pseudomonas aeruginosa (43), fixed concentration (μg/mL) in label
[17] = MEM-nonsusceptible Pseudomonas aeruginosa (76), fixed concentration (μg/mL) in label
[18] = CLSI breakpoints, marked c: breakpoints for β-lactam alone, tigecycline: FDA breakpoints

`C[C@H]1COc2c(N3CCN(C)CC3)c(F)cc3c(=O)c(C(=O)O)cn1c23` [Levofloxacin] was tested, and the “CLSI MIC interpretation I (intermediate)” value [1, 9] was 3.9%, the “CLSI MIC interpretation R (resistant)” value [1, 9] was 72% and the “CLSI MIC interpretation S (susceptible)” value [1, 9] was 24.2%. For the same compound, the MIC50 [1] was 16 mg/L (≈ 44.3 µM), the MIC90 [1] was 64 mg/L (≈ 177 µM) and the “CLSI MIC interpretation I (intermediate)” value [2] was 2.4%. For the same compound, the “CLSI MIC interpretation R (resistant)” value [2] was 79.5%, the “CLSI MIC interpretation S (susceptible)” value [2] was 18.1% and the MIC50 [2, 10] was 32 mg/L (≈ 88.6 µM). The MIC90 [2, 10] was 64 mg/L (≈ 177 µM), the “CLSI MIC interpretation I (intermediate)” value [3] was 1.3% and the “CLSI MIC interpretation R (resistant)” value [3] was 71.3%. For the same compound, the “CLSI MIC interpretation S (susceptible)” value [3] was 27.5%, the MIC50 [3, 10] was 16 mg/L (≈ 44.3 µM) and the MIC90 [3, 10] was over 64 mg/L. For the same compound, the “CLSI MIC interpretation I (intermediate)” value [4, 11] was 6.8%, the “CLSI MIC interpretation R (resistant)” value [4, 11] was 81.1% and the “CLSI MIC interpretation S (susceptible)” value [4, 11] was 12.2%. The MIC50 [4, 12] was 32 mg/L (≈ 88.6 µM), the MIC90 [4, 12] was over 64 mg/L and the “CLSI MIC interpretation I (intermediate)” value [5, 13] was 10.9%. The “CLSI MIC interpretation R (resistant)” value [5, 13] was 89.1%, the “CLSI MIC interpretation S (susceptible)” value [5, 13] was 0% and the MIC50 [5, 10] was 16 mg/L (≈ 44.3 µM). For the same compound, the MIC90 [5, 10] was 64 mg/L (≈ 177 µM), the “CLSI MIC interpretation I (intermediate)” value (96 P. aeruginosa; [13]) was 4.2% and the “CLSI MIC interpretation R (resistant)” value (96 P. aeruginosa; [13]) was 81.3%. For the same compound, the “CLSI MIC interpretation S (susceptible)” value (96 P. aeruginosa; [13]) was 14.6%, the MIC50 (96 P. aeruginosa; [10]) was 32 mg/L (≈ 88.6 µM) and the MIC90 (96 P. aeruginosa; [10]) was 64 mg/L (≈ 177 µM). The “CLSI MIC interpretation (%) I” value ([6]; I, intermediate (including susceptible dose-dependent), CLSI breakpoints, last subgroup of Table 2) was 2.2%, the “CLSI MIC interpretation I (intermediate)” value [6, 14] was 0% and the “CLSI MIC interpretation R (resistant)” value [6, 14] was 100%. For the same compound, the “CLSI MIC interpretation S (susceptible)” value [6, 14] was 0%, the “CLSI MIC interpretation I (intermediate)” value [6, 15] was 1.3% and the “CLSI MIC interpretation R (resistant)” value [6, 15] was 89.5%. For the same compound, the “CLSI MIC interpretation S (susceptible)” value [6, 15] was 9.2%, the MIC50 [6, 16] was 32 mg/L and the MIC90 [6, 16] was over 64 mg/L. For the same compound, the MIC50 [6, 17] was 32 mg/L (≈ 88.6 µM), the MIC90 [6, 17] was over 64 mg/L and the MIC50 ([6]; Table 2, broth microdilution) was 32 mg/L (≈ 88.6 µM). The MIC90 ([6]; Table 2, broth microdilution) was 64 mg/L (≈ 177 µM), the “CLSI MIC interpretation (%) R” value ([6]; R, resistant, CLSI breakpoints, last subgroup of Table 2) was 91.1% and the “CLSI MIC interpretation (%) S” value ([6]; S, susceptible, CLSI breakpoints, last subgroup of Table 2) was 6.7%. For the same compound, the “CLSI MIC interpretation I (intermediate)” value [7] was 0%, the “CLSI MIC interpretation R (resistant)” value [7] was 75.9% and the “CLSI MIC interpretation S (susceptible)” value [7] was 24.1%. The MIC50 [7, 10] was 32 mg/L (≈ 88.6 µM), the MIC90 [7, 10] was 64 mg/L (≈ 177 µM) and the “CLSI MIC interpretation I (intermediate)” value [8, 18] was 5.5%. The “CLSI MIC interpretation S (susceptible)” value [8, 18] was 5.5%, the MIC50 [8, 10] was 32 mg/L (≈ 88.6 µM) and the MIC90 [8, 10] was over 64 mg/L.
With `CN(C)c1cc(NC(=O)CNC(C)(C)C)c(O)c2c1C[C@H]1C[C@H]3[C@H](N(C)C)C(O)=C(C(N)=O)C(=O)[C@@]3(O)C(O)=C1C2=O` [tigecycline] the “CLSI MIC interpretation I (intermediate)” value [1, 9] was 4.3^d %, the “CLSI MIC interpretation R (resistant)” value [1, 9] was 0.5^d % and the “CLSI MIC interpretation S (susceptible)” value [1, 9] was 95.2^d %. The “MIC Range” value ([1]; All Enterobacterales (207), cefiderocol 205 isolates, fixed concentration (μg/mL) in label) was 0.12 to 16 mg/L, the MIC50 [1] was 0.5 mg/L (≈ 0.854 µM) and the MIC90 [1] was 2 mg/L (≈ 3.41 µM). The “CLSI MIC interpretation I (intermediate)” value [2] was 5.5^d %, the “CLSI MIC interpretation R (resistant)” value [2] was 0.8^d % and the “CLSI MIC interpretation S (susceptible)” value [2] was 93.7^d %. For the same compound, the “MIC Range” value [2, 10] was 0.12 to 16 mg/L, the MIC50 [2, 10] was 1 mg/L (≈ 1.71 µM) and the MIC90 [2, 10] was 2 mg/L (≈ 3.41 µM). The “CLSI MIC interpretation I (intermediate)” value [3] was 3.8^d %, the “CLSI MIC interpretation R (resistant)” value [3] was 0.0^d % and the “CLSI MIC interpretation S (susceptible)” value [3] was 96.3^d %. For the same compound, the “MIC Range” value [3, 10] was 0.12 to 4 mg/L, the MIC50 [3, 10] was 1 mg/L (≈ 1.71 µM) and the MIC90 [3, 10] was 2 mg/L (≈ 3.41 µM). For the same compound, the “CLSI MIC interpretation I (intermediate)” value [4, 11] was 8.1^d %, the “CLSI MIC interpretation R (resistant)” value [4, 11] was 0.0^d % and the “CLSI MIC interpretation S (susceptible)” value [4, 11] was 91.9^d %. For the same compound, the “MIC Range” value [4, 12] was 0.12 to 4 mg/L, the MIC50 [4, 12] was 0.5 mg/L (≈ 0.854 µM) and the MIC90 [4, 12] was 2 mg/L (≈ 3.41 µM). For the same compound, the MIC90 ([4]; MBL-producing isolates, comparators) was at most 4 mg/L, the “MIC Range” value [5, 10] was 0.25 to 2 mg/L and the MIC50 [5, 10] was 1 mg/L (≈ 1.71 µM). The MIC90 [5, 10] was 1 mg/L (≈ 1.71 µM), the “MIC Range” value (96 P. aeruginosa; [10]) was 0.5 to 16 mg/L and the MIC50 (96 P. aeruginosa; [10]) was 4 mg/L (≈ 6.83 µM). For the same compound, the MIC90 (96 P. aeruginosa; [10]) was 16 mg/L (≈ 27.3 µM), the “MIC Range” value [6, 16] was 1 to 16 mg/L and the “MIC Range” value [6, 17] was 1 to 16 mg/L. The MIC50 [6, 16] was 4 mg/L, the MIC90 [6, 16] was 16 mg/L and the MIC50 [6, 17] was 4 mg/L (≈ 6.83 µM). The MIC90 [6, 17] was 16 mg/L (≈ 27.3 µM), the MIC50 ([6]; Table 2, broth microdilution) was 4 mg/L (≈ 6.83 µM) and the MIC90 ([6]; Table 2, broth microdilution) was 16 mg/L (≈ 27.3 µM). For the same compound, the “MIC Range” value ([6]; last subgroup of Table 2 (heading not shown; 45 isolates by the percentages, ceftolozane/tazobactam 0% S), broth microdilution) was 1 to 16 mg/L, the “CLSI MIC interpretation I (intermediate)” value [7] was 1.7^d % and the “CLSI MIC interpretation R (resistant)” value [7] was 0.0^d %. For the same compound, the “CLSI MIC interpretation S (susceptible)” value [7] was 98.3^d %, the “MIC Range” value [7, 10] was 0.12 to 4 mg/L and the MIC50 [7, 10] was 1 mg/L (≈ 1.71 µM). The MIC90 [7, 10] was 2 mg/L (≈ 3.41 µM), the “CLSI MIC interpretation I (intermediate)” value [8, 18] was 10.9^d % and the “CLSI MIC interpretation R (resistant)” value [8, 18] was 0.0^d %. For the same compound, the “CLSI MIC interpretation S (susceptible)” value [8, 18] was 89.1^d %, the “MIC Range” value [8, 10] was 0.12 to 4 mg/L and the MIC50 [8, 10] was 1 mg/L (≈ 1.71 µM). For the same compound, the MIC90 [8, 10] was 4 mg/L (≈ 6.83 µM).
